The values that follow come from patent publication US20240309360A1, “TRANS-ACTIVATORS AND METHODS AND USE THEREOF” (THE GOVERNING COUNCIL OF THE UNIVERSITY OF TORONTO, priority 2021, published 2024).

This test relates to EGFP reporter (7×TetO array, basal CMV promoter) in HEK293T reporter cell line. Description: TAD-seq pooled activation screen of 60-aa fragments fused to PYL1. Type of test: cell-based, human. The following applies: for logFC high GFP / logFC medium GFP: log 2 fold change of counts, 100 μM ABA 48 hours; for logFC high GFP: sorted high GFP cells (top 1%) vs unsorted cells; for logFC medium GFP: sorted medium GFP cells (top 2-5%) vs unsorted cells; for Hit medium GFP: medium GFP population (top 2-5%); for Hit high GFP: high GFP population (top 1%). The source says: A fragment library of 75 activators identified in our screen was generated, using 60 amino-acid tiles every 20 aa such that every amino acid was represented by three different fragments (FIG. 3A). The pooled fragment library was fused to PYL1 and recruited to the same GFP reporter used in the original ORFeome screen (FIG. 3A). […] The GFP positive population was sorted into two independent replicates, and fragments in each population were quantified by sequencing. However, in contrast to the ORFeome screen, both high GFP cells (top 1%) and medium GFP cells (top 2-5%) were sorted to potentially identify transactivators of different strength.
Activation domain tiling library generation. A tiling library was generated from 75 proteins identified as activators in the ORFeome screen. Oligonucleotides containing a 5′ adapter […] (SEQ ID NO: 23) and a 3′ adapter […] (SEQ ID NO: 24) to generate a 5′ adapter ([…]) (SEQ ID NO: 11) and a 3′ adapter ([…]) (SEQ ID NO: 12) were synthesized as pooled libraries (Twist Biosciences). 6×50 μl PCR reactions were set up using NEBNext Ultra II Q5 master mix (New England Biolabs) with 5 nM oligos as template. PCR conditions were optimized to find the lowest cycle with a clean visible product at the expected 300 bp length. The thermocycling condition was an initial 30 s at 98° C., then 2 cycles of 98° C. for 10 s, 63° C. for 20 s, and 72° C. for 15 s, followed by 10 more cycles of 98° C. for 10 s and 72° C. for 30 s with a final extension at 72° C. for 5 min. Primers were designed to have Gateway compatible flanking sequences. The resulting libraries were gel extracted by QIAgen gel extraction kit after loading on a 2% TAE gel for 2 hrs at 60V and subsequently cloned into pDONR221 using 20 separate BP reactions in total of 5 μl reactions. The entry plasmid pool was transformed after an overnight reaction into DHSalpha competent E. coli and incubated overnight on LB agar plates containing kanamycin ([…]). Colonies were collected and plasmid DNA purified. 20 LR reactions were then set up as described in the previous section. Each reaction was transformed into NEB 10-beta chemically competent E. coli and grown on LB agar plates containing carbenicillin ([…]) overnight at 30° C. Colonies were counted to ensure >200-fold coverage at each step of cloning, pooled and maxiprepped.
Pooled activation screens. ORFeome and transactivation tiling libraries tagged at the C-terminus with PYL1 were packaged into lentiviral particles. A clonal EGFP reporter cell line stably co-expressing ABI-dCas9 and a gRNA targeting the promoter were transduced at low multiplicity of infection (MOI) with approximately 30% cell survival after puromycin (1 μg/mL) selection. Untransduced cells under the same condition were fully eliminated. Sufficient cells were transduced to maintain >500 fold coverage of the libraries. Recruitment was induced by treating cells with 100 μM abscisic acid (ABA, Sigma) for 48 hours. In parallel, a control batch of cells were treated with equal total volume of DMSO. Cells were then washed in PBS, treated with dissociation buffer (1 mM EDTA, 10 mM KCl, 150 mM NaCl, 5 mM sodium bicarbonate, 0.1% glucose) and resuspended in flow buffer (5 mM EDTA, 25 mM HEPES pH 7, 1% BSA, PBS). High GFP population for each library, top 1% for ORFeome and two bins of top 1% and the next 4% for the TAD screen, were sorted and their genomic DNA directly extracted using QIAmp DNA Blood Mini Kit (QIAGEN).
TAD sequencing. Performed nested PCR on the purified genomic DNA using primers targeting T7 promoter and PYL1 of the backbone vector in the first step creating a ˜470 bp product. Products of the first reaction were then pooled and amplified for an additional 10 steps using primers targeting outside the Gateway sites creating a ˜300 bp product. Libraries were quantified on Qubit dsDNA Broad Range kit and paired-end sequenced on an Illumina MIseq with a custom PAGE-purified R1 sequencing primer. […]

Turning to “BTBD18-24: 60-aa TAD-seq fragment of BTBD18 (IDCREPYAFDTALLEQPCEAEEYRITSAAATSELEEILDFMLCGSDIEPPIGSLESPGAE; listed as Homo sapiens)”, the “logFC high GFP” value amounted to 1.246, the “logFC medium GFP” value is listed as 0.8561 and the “Hit medium GFP” value is “hit”.
Regarding “FAM22F-23: 60-aa TAD-seq fragment of FAM22F (LSYIDKLCSQEDFVTKVEAVIHPRFLEELLSPDPQMDFLALSQELEQEEGLTLAQLVEKR; listed as Homo sapiens)”, the “Hit high GFP” value was “hit”, the “logFC high GFP” value was found to be 5.822 and the “logFC medium GFP” value is given as 0.2737.
For “HOXA2-6: 60-aa TAD-seq fragment of HOXA2 (KKAAKKTALLPAAAAAATAAATGPACLSHKESLEIADGSGGGSRRLRTAYTNTQLLELEK; listed as Homo sapiens)”, the “logFC high GFP” value is recorded as 1.951, the “logFC medium GFP” value is 1.738 and the “Hit medium GFP” value is on record as “hit”.
In the case of “BRD8-24: 60-aa TAD-seq fragment of BRD8 (IDGKEELDLAEKMDIAVSYTGEELDFETVGDIIAIIEDKVDDHPEVLDVAAVEAALSFCE; listed as Homo sapiens)”, the “Hit high GFP” value is recorded as “hit”, the “logFC high GFP” value was determined as 1.593, the “logFC medium GFP” value is 1.566 and the “Hit medium GFP” value was “hit”.
Take “DDIT3-2: 60-aa TAD-seq fragment of DDIT3 (WYEDLQEVLSSDENGGTYVSPPGNEEEESKIFTTLDPASLAWLTEEEPEPAEVTSTSQSP; listed as Homo sapiens)”: the “logFC high GFP” value stood at 1.138, the “logFC medium GFP” value is reported as 1.28 and the “Hit medium GFP” value is listed as “hit”.
Regarding “ATF6B-1: 60-aa TAD-seq fragment of ATF6B (MAELMLLSEIADPTRFFTDNLLSPEDWGLQNSTLYSGLDEVAEEQTQLFRCPEQDVPFDG; listed as Homo sapiens)”, the “Hit high GFP” value was “hit”, the “logFC high GFP” value was 1.917, the “logFC medium GFP” value came out at 0.9931 and the “Hit medium GFP” value is given as “hit”.
“FAM22F-22: 60-aa TAD-seq fragment of FAM22F (EKGKVEQPQEEDGITSDPGLLSYIDKLCSQEDFVTKVEAVIHPRFLEELLSPDPQMDFLA; listed as Homo sapiens)”: the “Hit high GFP” value is “hit”, the “logFC high GFP” value was determined as 4.76, the “logFC medium GFP” value was 2.325 and the “Hit medium GFP” value was “hit”.
With “NPAS4-39: 60-aa TAD-seq fragment of NPAS4 (CNNLSPEDHSFLEDLATYETAFETGVSAFPYDGFTDELHQLQSQVQDSFHEDGSGGEPTF; listed as Homo sapiens)”, the “logFC high GFP” value turned out to be 0.798, the “logFC medium GFP” value worked out at 0.7684 and the “Hit medium GFP” value is recorded as “hit”.
With “CITED2-11: 60-aa TAD-seq fragment of CITED2 (MPASVAHVPAAMLPPNVIDTDFIDEEVLMSLVIEMGLDRIKELPELWLGQNEFDFMTDFV; listed as Homo sapiens)”, the “Hit high GFP” value was “hit”, the “logFC high GFP” value stood at 6.165 and the “logFC medium GFP” value was 0.9491.
As for “CITED1-7: 60-aa TAD-seq fragment of CITED1 (LQNWDFGAQAGGAESLSPSAGAQSPAIIDSDPVDEEVLMSLVVELGLDRANELPELWLGQ; listed as Homo sapiens)”, the “Hit high GFP” value is “hit”, the “logFC high GFP” value worked out at 4.314, the “logFC medium GFP” value was 1.597 and the “Hit medium GFP” value is “hit”.
In the case of “HOXA2-5: 60-aa TAD-seq fragment of HOXA2 (RGSPVPAGALQPPEYPWMKEKKAAKKTALLPAAAAAATAAATGPACLSHKESLEIADGSG; listed as Homo sapiens)”, the “logFC high GFP” value is recorded as 1.684, the “logFC medium GFP” value is on record as 2.311 and the “Hit medium GFP” value is listed as “hit”.
The corresponding values for “BTBD18-25: 60-aa TAD-seq fragment of BTBD18 (EEYRITSAAATSELEEILDFMLCGSDIEPPIGSLESPGAEGCRTPTYHLTETGKNWIEGE; listed as Homo sapiens)” are 1.471, 1.413 and “hit”.
Regarding “ATXN7L3-2: 60-aa TAD-seq fragment of ATXN7L3 (QEIYADLVEDSCLGFCFEVHRAVKCGYFFLDDTDPDSMKDFEIVDQPGLDIFGQVFNQWK; listed as Homo sapiens)”, the “logFC high GFP” value is on record as 0.7654, the “logFC medium GFP” value stood at 0.8911 and the “Hit medium GFP” value was “hit”.
In the case of “DDIT3-1: 60-aa TAD-seq fragment of DDIT3 (MAAESLPFSFGTLSSWELEAWYEDLQEVLSSDENGGTYVSPPGNEEEESKIFTTLDPASL; listed as Homo sapiens)”, the “Hit high GFP” value is “hit”, the “logFC high GFP” value was found to be 2.373, the “logFC medium GFP” value came out at 1.502 and the “Hit medium GFP” value is listed as “hit”.
As to “FAM22F-20: 60-aa TAD-seq fragment of FAM22F (PAETKVPEEIPPEVVQEYVDIMEELLGSHPGDTGEPEGQREKGKVEQPQEEDGITSDPGL; listed as Homo sapiens)”, the “Hit high GFP” value was “hit”, the “logFC high GFP” value was 3.214, the “logFC medium GFP” value was 2.101 and the “Hit medium GFP” value was “hit”.
As for “HOXA2-4: 60-aa TAD-seq fragment of HOXA2 (PGSHPRHGAGGRPKPSPAGSRGSPVPAGALQPPEYPWMKEKKAAKKTALLPAAAAAATAA; listed as Homo sapiens)”, the “logFC high GFP” value is listed as 1.664, the “logFC medium GFP” value came out at 1.595 and the “Hit medium GFP” value was “hit”.
With “ATOH1-1: 60-aa TAD-seq fragment of ATOH1 (MSRLLHAEEWAEVKELGDHHRQPQPHHLPQPPPPPQPPATLQAREHPVYPPELSLLDSTD; listed as Homo sapiens)”, the “logFC high GFP” value is reported as 0.7218, the “logFC medium GFP” value turned out to be 0.9194 and the “Hit medium GFP” value was “hit”.
Take “RELB-2: 60-aa TAD-seq fragment of RELB (RRVARPPAAPELGALGSPDLSSLSLAVSRSTDELEIIDEYIKENGFGLDGGQPGPGEGLP; listed as Homo sapiens)”: the “Hit high GFP” value was “hit”, the “logFC high GFP” value was 2.147, the “logFC medium GFP” value is 1.711 and the “Hit medium GFP” value is listed as “hit”.
As to “KLF6-1: 60-aa TAD-seq fragment of KLF6 (MDVLPMCSIFQELQIVHETGYFSALPSLEEYWQQTCLELERYLQSEPCYVSASEIKFDSQ; listed as Homo sapiens)”, the “Hit high GFP” value is “hit”, the “logFC high GFP” value amounted to 5.453, the “logFC medium GFP” value is 1.868 and the “Hit medium GFP” value is “hit”.
As for “SS18L2-2: 60-aa TAD-seq fragment of SS18L2 (QETIQRLLEENDQLIRCIVEYQNKGRGNECVQYQHVLHRNLIYLATIADASPTSTSKAME; listed as Homo sapiens)”, the “logFC high GFP” value is 1.012, the “logFC medium GFP” value is reported as 1.166 and the “Hit medium GFP” value is listed as “hit”.
In the case of “SERTAD2-11: 60-aa TAD-seq fragment of SERTAD2 (SEAGTQKLDGPQESRADDSKLMDSLPGNFEITTSTGFLTDLTLDDILFADIDTSMYDFDP; listed as Homo sapiens)”, the “Hit high GFP” value is listed as “hit”, the “logFC high GFP” value is given as 2.48, the “logFC medium GFP” value worked out at 1.822 and the “Hit medium GFP” value is reported as “hit”.
